# Results reported in patent US12121530B2, “Composition and methods for treating articulating joint disorders with nucleoside reverse transcriptase inhibitors” (RHODE ISLAND HOSPITAL, priority 2018, dated 2024).
# “Also recorded” adds a separate entry of the source.
# How the values were obtained:
# [1] = system: mouse femur articular cartilage; assay: femur explant organ culture with 3TC or FTC, RT-qPCR of articular cartilage; assay type: cell-based; details: 10 μM 3TC or 25 μM FTC, 48 hrs
# From the text: Femurs were obtained from 21-day-old WT C57BL/6 mice. Femurs with intact articular surface and periosteum was sterilely dissected under microscope. Upon harvesting, femurs were rinsed with HBSS (Gibco®, Grand Island, N.Y. 14072 USA) and then submerged into DMEM (Gibco, Grand Island, N.Y. 14072 USA) medium supplemented with 10% fetal bovine serum (FBS, Gibco®, Grand Island, N.Y. 14072 USA) in 12-well culture dishes. The first-generation cytidine analogue/NRTI-3TC or newest-generation cytidine analogue/NRTI-FTC was added into the medium with desired concentrations. After a total of 48 hrs incubation at 37° C. in an atmosphere of 5% CO2, femurs were rinsed with HBSS and articular cartilage was peeled off using surgical scalpels under dissecting microscope for RNA extraction. Both miRNA and mRNA were extracted using miRNeasy Mini Kit (Qiagen®, Germantown, Md., USA) and reversely transcribed using […] (Qiagen®, Germantown, Md., USA) according to manufacturer's instruction. qPCR was performed using SYBR Green PCR master mix (Qiagen®, Germantown, Md., USA) on a Bio-Rad CFX96 real-time PCR detection system (Bio-Rad®, Hercules, Calif., USA). Amplification conditions are as follows: 95° C. for 10 min, 40 cycles of 95° C. for 10'', 55° C. for 30'', and 72° C. for 30''. 18S ribosomal or GAPDH RNA was used as an internal control gene to normalize the mRNAs level. The ubiquitously expressed snRNA U6 was used as an endogenous control for miRNAs level. […] The primers for miR-365 were purchased from Qiagen. Fold changes of mRNA and miRNAs were calculated by the 2^^(ΔΔCt) method and normalized to 18S/GAPDH or U6 snRNA, respectively.
# [2] = system: mouse primary chondrocytes; assay: RT-qPCR gene expression in mouse primary chondrocytes treated with 3TC or FTC at various dosages; assay type: cell-based
# Experimental: Rib cages were sterilely isolated from neonatal mice (within 7-day-old) of desired genotypes and rinsed with HBSS for five times. To remove unspecific tissues, rib cages were digested in Collagenase D (3 μg/mL, Roche, Cat. 11088882001, Mannheim, Germany) for 2-4 hrs at 37° C. and rinsed with HBSS (Gibco®, Grand Island, N.Y. 14072 USA) for five times to remove detached unspecific tissues. To detach chondrocytes from rib cages, the samples underwent secondary digestion in Collagenase D (3 μg/mL) for at least 4 hrs at 37° C. with constant agitation (200 rpm). Detached chondrocytes were pelleted to remove excessive Collagenase D and resuspended in complete medium of DMEM (Gibco®, Grand Island, N.Y. 14072 USA) which contains 10% FBS, 100 U/mL penicillin and 100 μg/mL streptomycin (Gibco®, Grand Island, N.Y. 14072 USA). Growth plate PCs were grown at 37° C. in an atmosphere of 5% CO2. The media was changed on the following day to remove remaining Collagenase D and every 3 days thereafter. Similarly, articular cartilages were sterilely isolated under dissection microscope from neonatal mice (within 7-day-old) of desired genotypes and rinsed with HBSS for five times. In brief, the skins of hindlimbs were removed and transections on Ilia and muscles around hip joints were made to detach hindlimbs from torsi, then transferred to a petri dish. Under a dissection microscope placed in a cell culture hood, soft tissues were cleared while knee and hip joints were exposed. Femur heads could be easily peeled off whilst a fine cut of epiphyses based on vascularization were made to isolate articular cartilage from secondary ossification center. Beyond that, isolated tissues were minced into finer fragments and then put together before undergoing HBSS rinse and subsequent Collagenase D digestion. To remove unspecific tissues, articular cartilages were minced and digested in Collagenase D (3 μg/mL) for 2 hrs at 37° C. and rinsed with HBSS for five times to remove detached unspecific tissues. To detach chondrocytes from cartilage matrix, the samples underwent secondary digestion in Collagenase D (3 μg/mL) for at least 4 hrs at 37° C. with constant agitation (200 rpm). Detached chondrocytes were pelleted to remove excessive Collagenase D and resuspended in complete medium of DMEM which contains 10% FBS, 100 U/mL penicillin and 100 μg/mL streptomycin. Articular PCs were grown at 37° C. in an atmosphere of 5% CO2. The media was changed on the following day to remove remaining Collagenase D and every 3 days thereafter. Both miRNA and mRNA were extracted using miRNeasy Mini Kit (Qiagen®, Germantown, Md., USA) and reversely transcribed using […] (Qiagen®, Germantown, Md., USA) according to manufacturer's instruction. qPCR was performed using SYBR Green PCR master mix (Qiagen®, Germantown, Md., USA) on a Bio-Rad CFX96 real-time PCR detection system (Bio-Rad®, Hercules, Calif., USA). Amplification conditions are as follows: 95° C. for 10 min, 40 cycles of 95° C. for 10'', 55° C. for 30'', and 72° C. for 30''. 18S ribosomal or GAPDH RNA was used as an internal control gene to normalize the mRNAs level. The ubiquitously expressed snRNA U6 was used as an endogenous control for miRNAs level. […] The primers for miR-365 were purchased from Qiagen. Fold changes of mRNA and miRNAs were calculated by the 2^^(ΔΔCt) method and normalized to 18S/GAPDH or U6 snRNA, respectively.
# HIV patients = assay: summary data of NRTI on OA in HIV patients; assay type: in vivo, human; details: HIV patients, older than 50, dosage dependent, both male and female
# From the text: Medical provider diagnoses of ICD-9-CM 715 [osteoarthrosis and allied disorders] include the following definitions: 1) strict=ICD-9-CM 715; 2) expanded=ICD-9-CM 715, 716 [other and unspecified arthropathies], OR 719 [other and unspecified disorders of joint]); and 3) probable=strict OR expanded+respondent-reported prior diagnosis of OA or other arthritis excluding rheumatoid arthritis (RA).
# [3] = mouse primary chondrocytes, RNA level, various dosages
# [4] = mouse chondrocytes, at lower than 100 μM concentrations
smiles,measurement,setting,value
"Nc1ccn([C@@H]2CS[C@H](CO)O2)c(=O)n1 [3TC, lamivudine]",Acan expression,[1],induces; also recorded: increased
same,Adamts5 expression,[1],inhibiting; also recorded: significantly inhibited
same,Col2 (Col2a1) expression,[1],induces; also recorded: increased
same,Col10 (Col10a1) expression,[1],inhibiting; also recorded: significantly inhibited
same,Ifn-α mRNA level,[1],significantly inhibited
same,Ihh mRNA level,[1],significantly inhibited
same,Line-1 (L1) levels,[1],inhibiting; also recorded: significantly inhibited
same,Mmp3 mRNA level,[1],significantly inhibited
same,Mmp13 expression,[1],inhibiting; also recorded: significantly inhibited
same,Acan expression,[2]; [3],stimulated
same,Adamts5 expression,[2]; [3],suppresses; also recorded: inhibited
same,Col2 (Col2a1) expression,[2]; [3],promotes; also recorded: stimulated
same,Col10 (Col10a1) expression,[2]; [3],suppresses; also recorded: inhibited
same,Ifn-α (Inf-α) expression,[2]; [3],suppresses
same,Line-1 expression,[2]; [3],suppresses; also recorded: inhibited
same,Mmp13 expression,[2]; [3],inhibited
same,strict OA (ICD-9-CM 715),HIV patients,inhibiting
"Nc1nc(=O)n([C@@H]2CS[C@H](CO)O2)cc1F [FTC, 2′,3′-dideoxy-5-fluoro-3′-thiacytidine]",Acan expression,[1],induces; also recorded: increased
same,Adamts5 expression,[1],inhibits; also recorded: significantly inhibited
same,Col2 (Col2a1) expression,[1],increased
same,Col10 (Col10a1) expression,[1],significantly inhibited
same,Ifn-α mRNA level,[1],significantly inhibited
same,Ihh mRNA level,[1],significantly inhibited
same,Line-1 (L1) levels,[1],significantly inhibited
same,Mmp3 mRNA level,[1],significantly inhibited
same,Mmp13 expression,[1],inhibits; also recorded: significantly inhibited
same,Acan levels,[2]; [4],increased
same,Col2a1 levels,[2]; [4],increased
same,Acan expression,[2]; [3],promotes
same,Adamts5 expression,[2]; [3],induces
same,Col2 (Col2a1) expression,[2]; [3],promotes
same,Col10 (Col10a1) expression,[2]; [3],induces
same,Ifn-α (Inf-α) expression,[2]; [3],suppresses; also recorded: significantly inhibited
same,Line-1 expression,[2]; [3],suppresses; also recorded: significantly inhibited
same,Mmp3 expression,[2]; [3],induces
same,Mmp13 expression,[2]; [3],induces
same,Nlrp3 expression,[2]; [3],suppresses; also recorded: significantly inhibited
same,P2rx7 expression,[2]; [3],suppresses; also recorded: significantly inhibited
same,strict OA (ICD-9-CM 715),HIV patients,inhibiting
